Assay results: ChEMBL document CHEMBL4414565, “Furanocoumarins from the Roots of Angelica dahurica with Inhibitory Activity against Intracellular Reactive Oxygen Species Accumulation” (J Nat Prod, 2019)

Tests used:
HepG2 [1] = assay: Inhibition of H2O2-induced ROS accumulation in human HepG2 cells assessed as ROS generation at 10 uM preincubated for 1 hr followed by H2O2-stimulation and measured after 30 mins by H2DCFDA staining based flow cytometry (reference value: 100 +/- 11.53%); assay type: functional; set-up: scale not given: the % may be the effect or the level left
HepG2 [2] = assay: Cytotoxicity against human HepG2 cells assessed as cell viability at 10 uM incubated for 1 hr by EZ-Cytox cell viability assay; assay type: cell-based; conditions: hepg2, 1 h
HepG2 [3] = assay: Hepatoprotective activity against H2O2-induced cell death in human HepG2 cells assessed as cell viability at 10 uM preincubated for 1 hr followed by H2O2-stimulation and measured after 24 hrs by EZ-Cytox cell viability assay (reference value: 43.9 +/- 5.25%); assay type: functional; conditions: read-out: Activity
HepG2 [4] = assay: Hepatoprotective activity against H2O2-induced cell death in human HepG2 cells assessed as cell viability at 50 uM preincubated for 1 hr followed by H2O2-stimulation and measured after 24 hrs by EZ-Cytox cell viability assay (reference value: 43.9 +/- 5.25%); assay type: functional; conditions: read-out: Activity
HepG2 [5] = assay: Inhibition of H2O2-induced ROS accumulation in human HepG2 cells at 50 uM assessed as ROS generation preincubated for 1 hr followed by H2O2-stimulation and measured after 30 mins by H2DCFDA staining based flow cytometry (reference value: 100 +/- 11.53%); assay type: functional; set-up: scale not given: the % may be the effect or the level left

Row | SMILES | Activity (HepG2 [1]) [%] | Activity (HepG2 [2]) | viability at 10 µM (HepG2 [3]) [%] | viability at 50 µM (HepG2 [4]) [%] | Activity (HepG2 [5]) [%]
1 | C/C=C/c1cc(OC)c(OC)c(OC)c1 | 75.8 | Non-Toxic | 62.2 | – | –
2 | COc1c2ccoc2c(OC[C@@H](O)C(C)(C)OC)c2oc(=O)ccc12 | 52 | Non-Toxic | 40.4 | – | –
3 | CC1(C)O[C@@H]1COc1c2ccoc2cc2oc(=O)ccc12 | 103.9 | Non-Toxic | 59.3 | – | –
4 | COc1c2ccoc2c(O)c2oc(=O)ccc12 | 38.1 | Non-Toxic | 34.6 | – | –
5 | COc1c2c(c(OCC=C(C)C)c3occc13)O[C@]1(C=C2)O[C@H](COc2c3ccoc3cc3oc(=O)ccc23)C(C)(C)O1 | 79.9 | Non-Toxic | 64.1 | – | –
6 | COc1c2ccoc2c(OC/C=C(/C)COC(=O)CC(C)C)c2oc(=O)ccc12 | 90.1 | Non-Toxic | 58.5 | – | –
7 | CC(C)=CCOc1c2occc2c(OC[C@@H](O)C(C)(C)O)c2ccc(=O)oc12 | 78 | Non-Toxic | 51 | – | –
8 | CC(C)=CCOc1c2occc2c(OC[C@H]2OC2(C)C)c2ccc(=O)oc12 | 65.5 | Non-Toxic | 56.2 | – | –
9 | C=C(C)[C@H](O)COc1c2ccoc2c(OCC=C(C)C)c2oc(=O)ccc12 | 63.9 | Non-Toxic | 50.9 | – | –
10 | COc1c2c(c(OCC=C(C)C)c3occc13)O[C@@]1(C=C2)O[C@H](COc2c3ccoc3cc3oc(=O)ccc23)C(C)(C)O1 | 100 | Non-Toxic | 63 | – | –
11 | CC(C)=CCOc1c2ccoc2c(OCC(O)C(C)(C)O)c2oc(=O)ccc12 (single isomer, unassigned; (-)) | 85.3 | Non-Toxic | 61.1 | – | –
12 | COc1c2ccoc2cc2oc(=O)ccc12 [BERGAPTEN] | 92.7 | Non-Toxic | 60.3 | – | –
13 | COc1c2ccoc2c(OC[C@@H](O)C(C)(C)O)c2oc(=O)ccc12 [BYAKANGELICIN] | 57.9 | Non-Toxic | 46.5 | – | –
14 | CC(C)=CCOc1c2ccoc2cc2oc(=O)ccc12 [ISOIMPERATORIN] | 71.1 | Non-Toxic | 67 | – | –
15 | COc1c2occc2c(OCC=C(C)C)c2ccc(=O)oc12 [KINIDILIN] | 51.3 | Non-Toxic | 60.5 | – | –
16 | COc1c2occc2cc2ccc(=O)oc12 [METHOXSALEN] | 77 | Non-Toxic | 56.5 | – | –
17 | CC(C)(O)[C@H](O)COc1c2ccoc2cc2oc(=O)ccc12 [OXYPEUCEDANIN HYDRATE] | 92.8 | Non-Toxic | 47.5 | – | –
18 | CC(C)=CCOc1c2occc2cc2ccc(=O)oc12 [PENTOSALEN] | 77.1 | Non-Toxic | 71.5 | – | –
19 | COc1c2ccoc2c(OCC=C(C)C)c2oc(=O)ccc12 [PHELLOPTERIN] | 58.3 | Non-Toxic | 57.6 | – | –
20 | O=c1ccc2cc3ccoc3cc2o1 [PSORALEN] | 101.4 | Non-Toxic | 55.5 | – | –
21 | O=C(/C=C/c1ccc(O)c(O)c1)O[C@H](Cc1ccc(O)c(O)c1)C(=O)O [ROSMARINIC ACID] | – | – | – | 65.3 | 49.3
